{"source": "patent US20170136008A1", "about": "“OXABICYCLOHEPTANES AND OXABICYCLOHEPTENES FOR THE TREATMENT OF OVARIAN CANCER” (priority 2014, published 2017)", "key": {"[1]": {"system": "OVCAR-8 ovarian cancer cells", "assay": "MTT cytotoxicity assay, OVCAR-8", "format": "cell-based, human", "settings": "Homo sapiens, OVCAR-8, OVCAR8, read-out: IC50, viability of ovarian cancer cell line", "procedure": "(§1) SKOV-3 ovarian cancer cells were purchased from American Type Culture Collection (ATCC) (Manassas, Va.). SKOV-3 cells were cultured in McCoy's 5A medium (ATCC, Manassas, Va.) supplemented with 10% fetal bovine serum and 100 units/mL penicillin G sodium, 100 ug/mL streptomycin sulfate, and 292 μg/ml, L-glutamine (BioWhittaker, Wakersville, Md.). Luciferase-expressing cells were generated by infecting SKOV-3 cells with pCLNCX-luciferase retrovirus (SKOV-3-Luc) as previously reported (Wei, B. R. et al. 2009). Human OVCAR-8 ovarian cancer cells were provided by the National Cancer Institute (part of the NCI-60 collection). The PEO1, PEO4, and PEO6 ovarian cancer cell lines have previously been characterized (Langdon, S. P. et al. 1988) and were kindly provided by Dr. Ian Goldlust (National Center for Advancing Translational Sciences, Shady Grove, Md.). […]\n(§2) Cell survival was measured by the 3-(4,5-dimethylthiazol-2-yl)-2,5-diphenyltetrazolium bromide (MTT, Invitrogen) assay. […] Absorbance values were determined at […] on a Spectra Max 250 spectrophotometer (Molecular Devices, Sunnyvale, Calif.). […] Cell viability was analyzed via the MTT assay as described above. […]"}, "OVCAR-8 NT shRNA cells": {"system": "OVCAR-8 NT shRNA cells", "assay": "Cell viability (MTT) assay, OVCAR-8 NT shRNA", "format": "cell-based", "settings": "Homo sapiens; OVCAR-8 NT shRNA (control)", "procedure": "Cell survival was measured by the 3-(4,5-dimethylthiazol-2-yl)-2,5-diphenyltetrazolium bromide (MTT, Invitrogen) assay. Cells were seeded at a density of 5,000 cells per well in 96-well plates and incubated at 37° C. in humidified 5% CO2 for 24 hours. The 50% inhibitory concentration (IC50) values were defined as the drug concentrations required to reduce cellular proliferation to 50% of the untreated control well. […] All MTT assays were carried out according to the manufacturer's instructions (Molecular Probes, Eugen, Oreg.). Absorbance values were determined at […] on a Spectra Max 250 spectrophotometer (Molecular Devices, Sunnyvale, Calif.). All MTT assays were performed in triplicate. […] Cells were treated with both drugs for 72 h. Cell viability was analyzed via the MTT assay as described above. Experiments were performed in triplicate, and the data are presented as a percent mean±SD.\nTo stably knockdown expression of PP2AC, a pLKO.1-puro plasmid-based […] shRNA targeting the sequence: […] (clone ID:TRCN0000002483, Sigma-Aldrich) was employed (PP2AC-shRNA). Additionally, a non-targeting shRNA plasmid (NT-shRNA) that targets no known human sequence was utilized as a control. […]"}, "SKOV-3 cells": {"system": "SKOV-3 cells", "assay": "Cell-cycle analysis (FACS), SKOV-3", "format": "cell-based, human", "procedure": "For cell-cycle analysis, cells were washed with PBS and fixed overnight in ice-cold 70% ethanol and stored at 4° C. Cells were then centrifuged and resuspended in 100 U RNAse (Sigma-Aldrich), and incubated at 37° C. for 20 min. Propidiumidodide solution (Invitrogen, 500 μL, 50 μg/mL in DPBS) was added to each tube and incubated in the dark at 4° C. overnight. Flow cytometry analysis was performed with CellQuestPro and data analysis was completed with ModFit LT. All data is in triplicate and presented as a percent mean±SD."}, "[2]": {"system": "PEO4 ovarian cancer cell line", "assay": "MTT cytotoxicity assay, PEO4", "format": "cell-based, human", "settings": "Homo sapiens, PEO4, read-out: IC50, viability of ovarian cancer cell line", "procedure": "as §1, §2"}, "[3]": {"system": "PEO6 ovarian cancer cell line", "assay": "MTT cytotoxicity assay, PEO6", "format": "cell-based, human", "settings": "Homo sapiens, read-out: IC50, viability of ovarian cancer cell line", "procedure": "as §1, §2"}}, "data": [{"compound": "CN1CCN(C(=O)C2C(C(=O)O)[C@H]3CC[C@@H]2O3)CC1", "note": "(stereo partly shown) [LB100]", "values": [{"measurement": "IC50", "setting": "[1]", "result": "5.5 ± 0.5", "unit": "µM"}, {"measurement": "IC50", "setting": "OVCAR-8 NT shRNA cells", "result": "15.7 ± 1.3", "unit": "µM"}, {"measurement": "G1 (%)", "setting": "SKOV-3 cells; 24 h, LB100 5 μM", "result": "51.4 ± 1.5", "unit": "%"}, {"measurement": "G2/M (%)", "setting": "SKOV-3 cells; 24 h, LB100 5 μM", "result": "28.9 ± 1.2", "unit": "%"}, {"measurement": "S (%)", "setting": "SKOV-3 cells; 24 h, LB100 5 μM", "result": "19.7 ± 0.8", "unit": "%"}, {"measurement": "G1 (%)", "setting": "SKOV-3 cells; 48 h, LB100 2 μM", "result": "49.8 ± 0.5", "unit": "%"}, {"measurement": "G2/M (%)", "setting": "SKOV-3 cells; 48 h, LB100 2 μM", "result": "25.1±0.8", "unit": "%"}, {"measurement": "S (%)", "setting": "SKOV-3 cells; 48 h, LB100 2 μM", "result": "25.1 ± 0.3", "unit": "%"}, {"measurement": "G1 (%)", "setting": "SKOV-3 cells; 48 h, LB100 5 μM", "result": "47.2 ± 1.9", "unit": "%"}, {"measurement": "G2/M (%)", "setting": "SKOV-3 cells; 48 h, LB100 5 μM", "result": "25.1 ± 0.8", "unit": "%"}, {"measurement": "S (%)", "setting": "SKOV-3 cells; 48 h, LB100 5 μM", "result": "30.2 ± 3.1", "unit": "%"}, {"measurement": "G1 (%)", "setting": "SKOV-3 cells; 48 h, LB100 10 μM", "result": "36.8 ± 1.8", "unit": "%"}, {"measurement": "G2/M (%)", "setting": "SKOV-3 cells; 48 h, LB100 10 μM", "result": "32.1±1.6", "unit": "%"}, {"measurement": "S (%)", "setting": "SKOV-3 cells; 48 h, LB100 10 μM", "result": "31.1 ± 0.8", "unit": "%"}, {"measurement": "G1 (%)", "setting": "SKOV-3 cells; 48 h, LB100 15 μM", "result": "42.3 ± 1.6", "unit": "%"}, {"measurement": "G2/M (%)", "setting": "SKOV-3 cells; 48 h, LB100 15 μM", "result": "33.9±1.4", "unit": "%"}, {"measurement": "S (%)", "setting": "SKOV-3 cells; 48 h, LB100 15 μM", "result": "23.8 ± 0.2", "unit": "%"}, {"measurement": "IC50", "setting": "[2]", "result": "5 ± 0.6", "unit": "µM"}, {"measurement": "IC50", "setting": "[3]", "result": "5.1 ± 0.2", "unit": "µM"}]}]}
